Marks after values point to notes of the source that are not given here.
What was measured:
[1] = tested on: 2237 tumor cells (syngeneic fibrosarcoma); test: Immunization with radiation killed 2237 tumor cells plus adjuvant, then footpad challenge with live 2237 cells; tumor volume by calipers; type: in vivo, C3H/HeN mice
Source text: C3H/HeN mice were immunized with 1×10^5 radiation killed 2237 tumor cells. The 2237 cell line is a moderately antigenic syngeneic fibrosarcoma obtained from s.c. growing tumors by collagenase dissociation. The donor tumor cells for use in tumor vaccine were irradiated with 10,000 R of gamma irradiation. Irradiation ultimately kills the cells but they are not immediately killed, indeed the cells may be able to undergo one or two additional divisions before a sufficient accumulation of chromosomal breaks or other abnormalities is obtained to result in a lethal event. Thus, irradiation results in a metabolically viable but noncontinuously proliferating cell. The cells were admixed with HBSS alone (serving as a non-adjuvant killed cell control vaccine), or with HBSS containing various doses of homogeneous recombinant Val-terminal human TNF-α alone or TNF-α plus IFN-γ. The mixture was injected intradermally into the posterior ventral region at five sites. Controls also included TNF without tumor cells, injections of HBSS alone (without killed 2237 cells), and FK565, a dimuramyl dipeptide derivative representing a known adjuvant as a positive control. Primary immunization with 2237 cells and TNF-α occurred on day 1; TNF-α was administered intraperitoneally alone on days 2 and 3. Secondary intradermal immunization occurred on day 11 with the same number of killed cells. When IFN-γ was used with TNF-α, IFN-γ administrations accompanied the TNF-α administration and further, IFN-γ, TNF-α or IFN-γ plus TNF-α were administered intraperitoneally on days 12 and 13. Five days after the second immunization the animals' footpads were injected with live 2237 cells. 48, 74 and 81 days later the tumors that had developed were measured by calipers in two dimensions. Numerous control animals had died by the last measurement day. […] Tumor volume was determined using the formula for a prolated sphere using the two dimensions previously measured. The formula is tumor volume (cm^3) equals ½ A×B^2; where A equals the larger tumor diameter and B equals the smaller tumor diameter.

[2] = tested on: bovine serum albumin (BSA); test: Serum antibody (IgG) against BSA by Elisa after BSA immunization; type: in vivo, C3H/HeN mice; conditions: for Production of antibody (IgG) against BSA: BSA 500 μg i.p. day 0 and second injection 100 μg, adjuvant at various doses, bled three days later, Elisa
Experimental: C3H/HeN mice were given an i.p. injection of bovine serum albumin using a suboptimal vaccine dose (500 μg/animal), which was administered by i.p. injection on day 0. Various doses of TNF-α, as an adjuvant, were administered 48 hours following a second injection of BSA at 100 μg/animal. The mice were bled three days later and the serum antibody levels as IgG were determined using routine Elisa techniques. The i.v. injection of maleic divinyl ether with an average molecular weight of 20,000 daltons was used as a positive control.

2237 cells = test: Direct cytotoxic effect on 2237 cells; type: cell-based
Source text: This is not especially relevant in the context of the foregoing experiments because the tumor cells were not injected into the animals until 2 days after they had last been exposed to cytokines.

cytotoxic T cells = test: Development of cytotoxic T cells in 2237-cell immunized mice; type: in vivo
[3] = 500 μg per animal with killed 2237 cell vaccine
[4] = 5 × 10^4 units per animal with killed 2237 cell vaccine
[5] = 0.1 μg per animal with killed 2237 cell vaccine
[6] = 1 μg per animal with killed 2237 cell vaccine
[7] = 5 μg per animal with killed 2237 cell vaccine

CCCCCCC(=O)N[C@H](CCC(=O)N[C@@H](CCC[C@@H](N)C(=O)O)C(=O)N[C@H](C)C(=O)O)C(=O)O [FK565, reference compound]
Tumor Volume Day 48 [1, 3]: 0 cm^3
Tumor Volume Day 74 [1, 3]: 0 cm^3
Tumor Volume Day 81 [1, 3]: 0 cm^3

IFN-γ: IFN-γ (γ-interferon) lymphokine given with or without TNF-α
Tumor Volume Day 48 [1, 4]: 0 cm^3
Tumor Volume Day 74 [1, 4]: 0 cm^3
Tumor Volume Day 81 [1, 4]: 0 cm^3

TNF-α
Production of antibody (IgG) against BSA [2]: in a dose-dependent manner augmented
Serum antibody activity after injection of TNF alone ([2]; control, TNF alone): did not induce serum antibody activity
Tumor Volume Day 48 [1, 5]: 0 cm^3
Tumor Volume Day 74 [1, 5]: 0 cm^3
Tumor Volume Day 81 [1, 5]: 0 cm^3
Fate of the tumor that had developed in one animal ([1]; 1 μg per animal group, footnote to Day 48 value): *The tumor that had developed in one animal in this group regressed before the end of the study.
Tumor Volume Day 48 [1, 6]: 0.157* cm^3
Tumor Volume Day 74 [1, 6]: 0 cm^3
Tumor Volume Day 81 [1, 6]: 0 cm^3
Tumor Volume Day 48 [1, 7]: 0 cm^3
Tumor Volume Day 74 [1, 7]: 0 cm^3
Tumor Volume Day 81 [1, 7]: 0 cm^3
Direct cytotoxic effect on 2237 cells (2237 cells): Neither TNF-α nor IFN-γ have any significant direct cytotoxic effect
Stimulation of the development of cytotoxic T cells (cytotoxic T cells): able to stimulate the development of cytotoxic T cells

maleic divinyl ether [MVE-2, reference compound]
Production of antibody (IgG) against BSA [2]: in a dose-dependent manner augmented

B1: IFN-γ: IFN-γ (γ-interferon) lymphokine given with or without TNF-α (protein, UniProt P01579 24-161, looked up)
Interferon gamma: QDPYVKEAENLKKYFNAGHSDVADNGTLFLGILKNWKEESDRKIMQSQIVSFYFKLFKNFKDDQSIQKSVETIKEDMNVKFFNSNKKKRDDFEKLTNYSVTDLNVQRKAIHELIQVMAELSPAAKTGKRKRSQMLFRG
Direct cytotoxic effect on 2237 cells (2237 cells): Neither TNF-α nor IFN-γ have any significant direct cytotoxic effect

Source: US6551585B1, “Use of tumor necrosis factor as an adjuvant” (Genentech, Inc., priority 1987, dated 2003)
